Source: ChEMBL document CHEMBL3727350, “Agents and methods for treating ischemic and other diseases” (2014)
Active and inactive are the calls of the source. The rule behind the calls is not given here.

biological target: Transient receptor potential cation channel subfamily M member 7 (Mus musculus) (UniProt Q923J1); experiment: Inhibition of Tet-induced Flag-tagged mouse TRPM7 expressed in HEK293 cells assessed as inhibition of channel-mediated cell death in presence of Mg2+ incubated for 24 to 48 hrs by propidium iodide uptake assay; format: cell-based; parameters: concentration or dose not given beside the values; settings: not given
Sequence (Q923J1 whole entry): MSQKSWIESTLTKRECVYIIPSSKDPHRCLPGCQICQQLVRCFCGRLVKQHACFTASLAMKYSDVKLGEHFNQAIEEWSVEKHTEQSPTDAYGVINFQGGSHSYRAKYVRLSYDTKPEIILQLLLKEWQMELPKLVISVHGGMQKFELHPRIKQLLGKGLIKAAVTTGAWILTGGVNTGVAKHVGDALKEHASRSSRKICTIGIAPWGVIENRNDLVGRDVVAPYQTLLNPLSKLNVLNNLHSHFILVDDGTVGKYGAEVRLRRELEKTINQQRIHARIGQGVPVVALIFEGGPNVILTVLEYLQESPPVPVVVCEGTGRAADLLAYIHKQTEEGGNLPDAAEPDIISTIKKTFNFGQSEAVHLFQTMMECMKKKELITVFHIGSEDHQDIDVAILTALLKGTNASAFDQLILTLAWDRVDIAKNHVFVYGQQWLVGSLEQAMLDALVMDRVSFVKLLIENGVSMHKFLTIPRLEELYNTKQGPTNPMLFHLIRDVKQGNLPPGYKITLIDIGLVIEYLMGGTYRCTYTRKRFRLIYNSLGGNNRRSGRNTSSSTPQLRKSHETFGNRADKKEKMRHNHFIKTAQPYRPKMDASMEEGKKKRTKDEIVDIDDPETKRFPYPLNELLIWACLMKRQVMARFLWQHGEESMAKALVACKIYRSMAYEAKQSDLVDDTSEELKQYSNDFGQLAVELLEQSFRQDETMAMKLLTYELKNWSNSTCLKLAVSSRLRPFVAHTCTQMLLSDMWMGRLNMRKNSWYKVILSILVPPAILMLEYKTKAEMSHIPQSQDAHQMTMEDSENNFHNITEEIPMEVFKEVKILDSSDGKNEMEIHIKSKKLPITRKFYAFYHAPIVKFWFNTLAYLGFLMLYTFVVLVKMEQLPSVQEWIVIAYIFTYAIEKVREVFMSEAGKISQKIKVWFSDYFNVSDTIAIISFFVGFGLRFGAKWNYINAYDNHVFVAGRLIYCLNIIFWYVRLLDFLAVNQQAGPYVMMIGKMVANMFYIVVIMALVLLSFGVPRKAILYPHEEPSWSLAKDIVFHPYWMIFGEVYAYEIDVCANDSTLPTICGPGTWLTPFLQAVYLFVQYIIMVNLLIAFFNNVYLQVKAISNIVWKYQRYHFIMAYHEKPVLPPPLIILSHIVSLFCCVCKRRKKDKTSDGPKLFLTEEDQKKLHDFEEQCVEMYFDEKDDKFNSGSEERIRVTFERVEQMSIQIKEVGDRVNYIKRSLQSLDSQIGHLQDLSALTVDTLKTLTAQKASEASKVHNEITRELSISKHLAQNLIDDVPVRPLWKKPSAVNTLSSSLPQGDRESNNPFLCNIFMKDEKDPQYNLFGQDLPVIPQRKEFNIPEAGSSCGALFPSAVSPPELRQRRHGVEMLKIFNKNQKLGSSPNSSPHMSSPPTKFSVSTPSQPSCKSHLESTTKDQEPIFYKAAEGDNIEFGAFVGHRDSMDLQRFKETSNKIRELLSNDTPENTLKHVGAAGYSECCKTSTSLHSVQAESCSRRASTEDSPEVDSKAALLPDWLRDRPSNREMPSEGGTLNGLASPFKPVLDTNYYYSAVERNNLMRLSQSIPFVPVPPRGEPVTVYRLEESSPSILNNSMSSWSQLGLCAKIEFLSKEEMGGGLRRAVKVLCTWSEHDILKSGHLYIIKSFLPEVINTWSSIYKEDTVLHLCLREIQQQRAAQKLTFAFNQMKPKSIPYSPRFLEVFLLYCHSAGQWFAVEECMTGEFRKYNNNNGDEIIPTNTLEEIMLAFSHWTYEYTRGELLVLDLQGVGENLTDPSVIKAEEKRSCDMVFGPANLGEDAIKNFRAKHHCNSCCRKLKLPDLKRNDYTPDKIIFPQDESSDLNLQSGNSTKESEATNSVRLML

| Structure (SMILES) | inhibition |
| --- | --- |
| CCOc1ccc(Cc2nccc3cc(OCC)c(OCC)cc23)cc1OCC | Dose-dependent effect |
| Cc1ccc(NS(=O)(=O)c2ccc(-c3csc(C)n3)s2)c(C)c1 | Active |
| COc1cc2c(c(OC)c1OC)-c1ccc(OC)c(=O)cc1[C@@H](NC(C)=O)CC2 | Active |
| O=C1C(c2ccccc2)=C(O)C2C=CC=C3c4ccccc4N1C32 (stereo not given) | Active |

same assay, conditions: concentration not given here

| Structure (SMILES) | inhibition [%] |
| --- | --- |
| Cc1ccc([N+](=O)[O-])c(C(=O)NNC(=S)Nc2cccc(Cl)c2)c1 | 60 |
| COc1ccc(Nc2cc(=O)n(-c3ccccc3)c3c2c(=O)n(C)c(=O)n3C)cc1 | 60 |
| CNC(=O)c1cc([N+](=O)[O-])cc2c1-c1ccc([N+](=O)[O-])cc1C2=O | < 30 |
| CCc1cc2c(Sc3nnc(N)s3)ncnc2s1 | 60 |
| CCOC(=O)c1sc2nc(C)c(/N=N/c3ccccc3)c(C)c2c1N | < 30 |
| CCCCCCCCOc1ccc(S)nn1 | < 30 |
| CSc1nccc(-c2ccc(S(=O)(=O)n3nc(C)c(Br)c3C)s2)n1 | < 30 |
| O=C(Oc1ccc(Oc2ccccc2)cc1)N1CCC(OC(=O)n2ccnc2)CC1 | < 30 |
| Cc1csc(-c2nc(-c3ccc(Cl)cc3)no2)c1Cl | < 30 |
| Cc1cc(NS(=O)(=O)c2cccs2)[nH]n1 | < 30 |
| Nc1nc(-c2ccc(-c3ccccc3)cc2)cs1 | 40 |
| N#C/C(=N\Nc1ccc(Cl)cc1)C(N)=S | 60 |
| O=c1ccsn1-c1ccc(F)c(Cl)c1 | < 30 |
| CCc1c(O)c2ccccc2n(C)c1=O | 50 |
| O=C(CCSCc1ccc(Cl)cc1)Nc1ccc(Cl)cc1 | 60 |
| CCOC(=O)c1c(C)n(-c2ccccc2)c2ccc(OC(=O)C(c3ccccc3)C3CCCC3)cc12 (stereo not given) | 30 |
| COc1ccccc1C1CCN(C(=O)CSCc2cccc3ccccc23)CC1 | 80 |
| CC(C)c1ccc(-c2cc(=O)c3ccccc3o2)cc1 | 80 |
| O=C(NNC(=S)Nc1ccc2c(c1)CCCO2)c1ccco1 | < 30 |
| COC(=O)c1scc(S(=O)(=O)C(C)C)c1N/N=C(\C#N)C(=O)c1ccccc1 | < 30 |
| Brc1cn[nH]c1/C=N/Nc1nc(-c2ccccc2)cs1 | 50 |
| CC(C)(C)c1ccc(OCc2ncc(S(=O)(=O)c3ccccc3)c(N)n2)cc1 | < 30 |
| O=[N+]([O-])c1cccc(-c2ccc(/C=N/NC(=S)Nc3cccc(F)c3)o2)c1 | 30 |

| Structure (SMILES) | inhibition [%] |
| --- | --- |
| Cc1ccc(-c2n[nH]cc2Sc2ccc(C(F)(F)F)cn2)cc1 | < 30 |
| O=C1/C(=C\c2ccc3c(c2)OCO3)C(c2ccccc2)Oc2ccccc21 (stereo not given) | 50 |
| Cc1[nH]c2ccccc2c1CN1CCN(c2ccc(F)cc2)CC1 | < 30 |
| C/C=C(\C)C(=O)Nc1nncs1 | < 30 |
| Cc1ccc(NC(=O)c2c(-c3ccccc3Cl)noc2C)cc1F | < 30 |
| CCCCCNC(=S)NNC(=O)OCC | 60 |
| O=[N+]([O-])c1ccc(-n2ncc(-c3nc(-c4ccc(Cl)cc4)no3)c2C(F)(F)F)cc1 | < 30 |
| CC(C)(C)c1cc(C(=O)/C(C#N)=N/Nc2cccc(Cl)c2)no1 | 70 |
| CC(C)(C)c1ccc(-c2nc(CSc3ccc(Cl)cc3)no2)s1 | 60 |
| OC(CN1CCN(C(c2ccccc2)c2ccccc2)CC1)c1ccccc1 (stereo not given) | 60 |
| O=C(/C=C/c1ccc(OC(F)(F)F)cc1)NCc1ccco1 | 60 |
| O=C(CC12CC3CC(CC(C3)C1)C2)N1CCOCC1 | < 30 |
| Cc1c(S(=O)(=O)Nc2ccc(Cl)cc2)sc2ccc(Cl)cc12 | < 30 |
| COC(=O)c1cc(C)nc(Sc2ccccc2NC(=O)c2ccccc2)n1 | < 30 |
| CS(=O)(=NS(=O)(=O)c1ccc(Cl)cc1Cl)c1ccc(Cl)cc1 (stereo not given) | < 30 |
| O=C(NCc1cccs1)c1ccccc1 | < 30 |
| CC1(C)CC(=O)C=C(Sc2ccc(C#N)cc2[N+](=O)[O-])S1 | 50 |
| O=S(=O)(c1cc(Cl)sc1Cl)N1CCN(CCc2ccccc2)CC1 | < 30 |
| Cc1cc(C(=O)Nc2ccc(C(C)(C)C)cc2)nn1Cc1c(Cl)cccc1Cl | 70 |
| Cc1ccc(C(=O)/C=C/C(=O)O)c(C)c1F | 60 |
| Cc1nn(Cc2nc(-c3ccc(Cl)cc3)cs2)c(C)c1Br | 40 |
| Cc1csc2ncnc(N3CCN(S(=O)(=O)c4ccc(Cl)cc4)CC3)c12 | 70 |
| CCOC(=O)CCc1cc(/N=C/c2cc(Cl)cc(Cl)c2O)c(O)c(/N=C/c2cc(Cl)cc(Cl)c2O)c1 | 50 |

| Structure (SMILES) | inhibition [%] |
| --- | --- |
| Cc1onc(-c2c(Cl)cccc2Cl)c1C(=O)OCCOc1ccc(C(F)(F)F)cc1[N+](=O)[O-] | 60 |
| CC(=O)Nc1ccc(S(=O)(=O)Nc2ccccc2Oc2ccc(Cl)cc2Cl)cc1 | 80 |
| N=C(NC(=O)c1cccc(Cn2cc(C(F)(F)F)ccc2=O)c1)c1ccc(Cl)cc1 | 40 |
| CC(=O)Nc1ccc(S(=O)(=O)Nc2ccccc2C#N)cc1 | < 30 |
| O=C(Nc1ccc(F)cc1F)c1cc(Cl)cc(Cl)c1O | < 30 |
| CC(=O)N1N=C(c2ccccc2O)CC1c1ccc(Cl)cc1Cl (stereo not given) | < 30 |
| N#C/C(=N\Nc1cccc(C(F)(F)F)c1)C(=O)c1csc(-c2cccnc2)n1 | 60 |
| COC(=O)C1=CNC(CC(CC=O)c2ccc(F)cc2)=CC1c1ccc(N(C)C)cc1Cl (stereo not given) | < 30 |
| COc1ccc2nnc(-c3ccc(C(F)(F)F)cc3)n2n1 | < 30 |
| Oc1c(Cl)cc(Cl)cc1/C=N/c1ccc(Cl)cn1 | 40 |
| COc1ccc(-c2n[nH]cc2CN2CCN(c3ccccc3OC)CC2)cc1 | < 30 |
| c1ccc2c(CNCc3cccc4ccccc34)cccc2c1 | 70 |
| CCOC(=O)C(=CNc1csc(C)c1C(=O)OC)C(=O)OCC | 60 |
| CC1(C)CC(=O)c2c(SCCOC(=O)Nc3cccc(Cl)c3)sc(C#N)c2C1 | < 30 |
| COc1ccc(NC(=O)CSc2nnc(C)n2-c2ccc(OCc3ccccc3)cc2)cc1 | 50 |
| COc1ccccc1C1CCN(S(=O)(=O)c2ccc(C(C)C)cc2)CC1 | 80 |
| FC(F)(F)COc1ccc(-c2nc(-c3ccc(Cl)cc3)cs2)cn1 | 50 |
| Cc1cc(O)nc2c1c(-c1ccccc1)nn2C | < 30 |
| CC(C)NC(=O)n1ccc(-c2nn(-c3ccc(F)cc3)ccc2=O)n1 | < 30 |
| CCC1(c2cccc(OC)c2)CCCC(=O)NC1 (stereo not given) | < 30 |
| CC(C)NC(=O)n1nccc1-c1cc(-c2ccccc2)no1 | < 30 |
| N#Cc1ccc2c(c1)Sc1ccccc1N2 | 60 |
| O=[N+]([O-])c1ccc(Nc2cccc(F)c2)c2nonc12 | 40 |

| Structure (SMILES) | inhibition [%] |
| --- | --- |
| [O-][S+](c1ccc(Cl)cc1)c1ccc(-c2ccccn2)s1 (stereo not given) | < 30 |
| CCOC(=O)c1c(C)csc1NC(=O)CSc1ccc(Cl)cc1 | 50 |
| COc1ccc2c(c1)CCC1SC(NC(=O)c3ccco3)=NC21 (stereo not given) | < 30 |
| OC(COc1ccc(F)cc1)CN1CCN(Cc2c(F)cccc2Cl)CC1 (stereo not given) | 30 |
| CC(C)(C)c1ccc(-c2noc(-c3ccc4c(c3)CCO4)n2)cc1 | 60 |
| O=c1c(-c2ccccc2)c(O)c2cccc3c4ccccc4n1c23 | 90 |
| O/N=C/c1ccc2c(c1)CCO2 | < 30 |
| CN1CCN(NC(NC(=O)c2cccnc2)(C(F)(F)F)C(F)(F)F)CC1 | < 30 |
| CC(C)(C)c1ccc(N2C(=N)SCC2=O)cc1 | 40 |
| C/C(=N\NC1=NCCN1Cc1ccccc1)c1ccc(C)cc1 | 70 |
| Cc1onc(-c2c(Cl)cccc2Cl)c1/C=C1/C(=O)Nc2ccccc21 | 30 |
| Clc1ccc2c(N3CCCCC3)ccnc2c1 | < 30 |
| O=C(Nc1ccc2ccccc2n1)c1ccc(Cl)cc1 | 50 |
| O=C(Nc1ccc(Cl)cc1)OCc1noc(-c2cccs2)n1 | 70 |
| Cc1ccc(Oc2ccc(C(F)(F)F)cc2[N+](=O)[O-])c2c1CCC2 | < 30 |
| CCCCCCCC(=O)NC1=NC2c3ccc(OC)cc3CCC2S1 (stereo not given) | 70 |
| CN(C(=O)c1cnc(Oc2ccc(Cl)cc2)cc1C(F)(F)F)c1ccc(Cl)c(Cl)c1 | 60 |
| O=C(O/N=C(\Cn1nnc(N2CCCCC2)n1)c1ccc(Cl)cc1)c1ccccc1Cl | < 30 |
| CC(c1ccco1)N(C(=O)c1sc2ccccc2c1Cl)c1ccccn1 (stereo not given) | < 30 |
| C#CCSc1nc(-c2ccc(C(F)(F)F)cc2)nc(C)c1C(C)=O | < 30 |
| COc1ccc(CCNc2ccc(C(F)(F)F)cc2[N+](=O)[O-])cc1OC | 30 |
| CC(C)NC(=O)c1cc(-c2cccs2)on1 | 30 |
| CCCCCc1ccc(S(=O)(=O)Nc2ccccc2C(=O)NCC2CC2)cc1 | 60 |

| Structure (SMILES) | inhibition [%] |
| --- | --- |
| COc1ccc(NC(=S)Nc2ccc(C)c(NS(C)(=O)=O)c2)cc1 | 70 |
| CC(=O)CSc1nnc(CN2C(=O)CSc3ccc(C(F)(F)F)cc32)n1C | < 30 |
| O=C(Nc1ccccc1)OCCSCc1ccc2nc(C(F)(F)F)ccc2c1 | 60 |
| Cc1nnsc1C(=O)NCc1csc2ccc(Cl)cc12 | < 30 |
| COc1cc2c(cc1OCC(=O)Nc1ccc(C)cc1)C=CC(C)(C)O2 | 30 |
| O=[N+]([O-])c1cccc(-c2ccc(/C=N/NC(=S)NCc3ccco3)o2)c1 | < 30 |
| CC1CN=C(N(CCc2ccccc2)C(=O)Nc2ccc(Cl)cc2)S1 (stereo not given) | < 30 |
| O=C(Nc1cccc([N+](=O)[O-])c1)c1ccccc1O | 60 |
| Cc1csc(NC(=O)C(F)(F)F)c1C(N)=O | 50 |
| CCCCCCCCCc1c(O)c2ccccc2[nH]c1=O | 60 |
| Cc1ccc(C(=O)Nc2ccc3c(c2)CS(=O)(=O)C3)cc1 | < 30 |
| O=C(Nc1ccc(Oc2ccccc2)cc1)Nc1cccs1 | 70 |
| CCCSC(=S)c1c(C)nn(-c2ccc(C)cc2)c1O | 50 |
| O=C(Nc1cccc(C(F)(F)F)c1)Nc1nnc(C2CC2)s1 | 50 |
| NNC(=O)CSc1ccccc1[N+](=O)[O-] | 40 |
| CC(=O)/C(C#N)=C/c1ccco1 | < 30 |
| Cc1onc(-c2ccccc2)c1-c1cnn(S(=O)(=O)c2ccc(Cl)cc2)c1 | 30 |
| Cc1csc2ncnc(N3CCN(C(=O)Nc4ccc(OC(F)(F)F)cc4)CC3)c12 | 50 |
| Cn1c(SCC(=O)Nc2cccc3nsnc23)nnc1C(F)(F)F | < 30 |
